From US20090018121A1, “PREVENTIVE AND/OR THERAPEUTIC AGENT FOR RHEUMATOID ARTHRITIS” (Kowa Co., Ltd., priority 2005, published 2009)

Tested on: rat collagen-induced arthritis model
Assay: Edema suppressing effect in both hindlimbs in rat collagen-induced arthritis model (Edema Index)
Type: in vivo, rat (female Lewis, LEW/Crj)
Parameters: Edema Index: unit not given here
Settings: sole administration; for Relative index: Edema Index relative to control group; for Relative index / Decrease rate (%) / Edema Index: oral; for Decrease rate (%): of Edema Index vs control group; for Edema Index: mean ± SE
Procedure: Female Lewis rats (LEW/Crj) (obtained from Charles River Laboratories Japan, Inc.) were used as test animals.
This Pre value was used as an index to divide the rats into groups by one-parameter-based block randomization, so that the values in the respective groups averaged out.
The collagen emulsion for sensitization used to induce arthritis in rats was prepared by homogenizing 0.3% Type II collagen liquid (manufactured by Collagen Research Center), Adjuvant Peptide (manufactured by Peptide Institute, Inc.) and Adjuvant Incomplete Freund (manufactured by DIFCO), using a Handy Micro Homogenizer (manufactured by Microtec Nition) under ice-cooling. The collagen emulsion thus prepared was intracutaneously administered at 10 sites in the back of each rat at a dose of 0.1 mL/site, to perform initial sensitization of the rat. Seven days after initial sensitization, 0.12 mL of the same collagen emulsion was intracutaneously administered to the tail head of each rat, to perform booster sensitization.
Drug administration was conducted from the day after the initial sensitization through 18 days thereafter. Drug A and Drugs B-1, B-2 and B-4 were all orally administered two times a day, in the morning (9:00 to 11:00 AM) and in the evening (15:30 to 17:30 PM). Drug B-3 was orally administered once a day, around noon (11:30 AM to 13:30 PM).
14 Days and 18 days after the initial sensitization, respectively, the hindlimbs volume was measured again for each rat, and the difference between each of the values and the Pre value was determined to calculate the edema volume for both hindlimbs. The sum of the edema volumes for both hindlimbs measured 14 days and 18 days after the initial sensitization was calculated as the Edema Index, and this was taken as an index for the effect of the drug.
The Edema Index is represented by an average value±standard error for 8 rats in each group. Also, the decrease rate is represented by the formula: ((X−Y)/X)×100 (wherein X: average value of Edema Index for the control group, Y: average value of Edema Index for each group).

SMILES	Relative index (1 mg/kg, two times a day)	Relative index (3 mg/kg, two times a day)	Relative index (10 mg/kg, two times a day)	Decrease rate (%) (1 mg/kg, two times a day)	Decrease rate (%) (3 mg/kg, two times a day)	Decrease rate (%) (10 mg/kg, two times a day)	Edema Index (1 mg/kg, two times a day)	Decrease rate of Edema Index vs control group (%) (3 mg/kg)	Edema Index (3 mg/kg, two times a day, through 18 days after initial sensitization, sum of edema volumes of both hindlimbs at days 14 and 18)	Decrease rate of Edema Index vs control group (%) (10 mg/kg)	Edema Index (10 mg/kg, two times a day)	Relative index (0.2 mg/kg, once a day)	Decrease rate (%) (0.2 mg/kg, once a day)	Edema Index (0.2 mg/kg, once a day)
Cc1ccc(-c2cc(C(F)(F)F)nn2-c2ccc(S(N)(=O)=O)cc2)cc1 [Drug B-4, celecoxib]	0.70	0.61	0.46	30%	39%	54%	3.41 ± 0.16	39%	2.46 ± 0.22	54%	1.86 ± 0.19	–	–	–
Cc1cnc(NC(=O)C2=C(O)c3ccccc3S(=O)(=O)N2C)s1 [Drug B-3, meloxicam]	–	–	–	–	–	–	–	–	–	–	–	0.58	42%	2.04 ± 0.10
O=C(O)Cc1ccccc1Nc1c(Cl)cccc1Cl [Drug B-1, diclofenac sodium]	0.33	–	–	67%	–	–	1.20 ± 0.26	–	–	–	–	–	–	–
CSc1ccc(-c2nn(Cc3ccccc3)c(=O)cc2-c2ccc(Cl)cc2)cc1 [Drug A, 2-benzyl-5-(4-chlorophenyl)-6-[4-(methylthio)phenyl]-2H-pyridazin-3-one]	–	–	0.81	–	–	19%	–	–	–	–	2.93 ± 0.22	–	–	–
